Test [1] has as its system green foxtail. The test can be described thus: Test D preemergence. The class given is in vivo, Setaria viridis. The following applies: Setaria viridis, pre-emergence, scale 0-100, read-out: Plant response rating, Foxtail, Green. An excerpt: (§1) Seeds of plant species selected from bluegrass (annual bluegrass, Poa annua), blackgrass (Alopecurus myosuroides), canarygrass (littleseed canarygrass, Phalaris minor), chickweed (common chickweed, Stellaria media), galium (catchweed bedstraw, Galium aparine), bromegrass, downy (downy bromegrass, Bromus tectorum), field poppy (Papaver rhoeas), field violet (Viola arvensis), green foxtail (Setaria viridis), deadnettle (henbit deadnettle, Lamium amplexicaule), Italian ryegrass (Lolium multiflorum), kochia (Kochia scoparia), lambsquarters (Chenopodium album), oilseed rape (Brassica napus), pigweed (Amaranthus retroflexus), chamomile (scentless chamomile, Matricaria inodora), Russian thistle (Salsola kali), speedwell (bird's-eye speedwell, Veronica persica), spring barley (Hordeum vulgare), spring wheat (Triticum aestivum), wild buckwheat (Polygonum convolvulus), wild mustard (Sinapis arvensis), wild oat (Avena fatua), wild radish (Raphanus raphanistrum), windgrass (Apera spica-venti), winter barley (Hordeum vulgare), and winter wheat (Triticum aestivum) were planted into a silt loam soil and treated preemergence with test chemicals formulated in a non-phytotoxic solvent mixture which included a surfactant.
(§2) At the same time, these species were planted in pots containing Redi-Earth® planting medium (Scotts Company, 14111 Scottslawn Road, Marysville, Ohio 43041) comprising spaghnum peat moss, vermiculite, wetting agent and starter nutrients and treated with postemergence applications of the test chemicals formulated in the same manner. Plants ranged in height from 2 to 18 cm (1- to 4-leaf stage). Treated plants and controls were maintained in a controlled growth environment for 7 to 21 days after which time all species were compared to controls and visually evaluated. Plant response ratings, summarized in Table D, are based on a scale of 0 to 100 where 0 is no effect and 100 is complete control. A dash (-) response means no test result.

Test [2] concerns spring barley. The test is described as follows: Test D preemergence. The conditions noted are these: Hordeum vulgare, pre-emergence, scale 0-100, read-out: Plant response rating, Barley, Spring. The class given is in vivo, Hordeum vulgare.
From the text: as §1, §2

The test system of test [3] is winter barley. The test can be described thus: Test D preemergence. The class given is in vivo, Hordeum vulgare. The conditions noted are these: Hordeum vulgare, pre-emergence, scale 0-100, read-out: Plant response rating, Barley, Winter.
From the text: as §1, §2

Test [4] has as its system cocklebur. The test is described as follows: Test E preemergence. The following applies: for Cocklebur plant response rating: scale 0 to 100 (0 no effect, 100 complete control); for Plant response rating, Cocklebur: scale 0 to 100, 0 no effect, 100 complete control. The class given is in vivo, Xanthium strumarium. An excerpt: Seeds of plant species selected from corn (Zea mays), soybean (Glycine max), velvetleaf (Abutilon theophrasti), lambsquarters (Chenopodium album), wild poinsettia (Euphorbia heterophylla), palmer pigweed (Amaranthus palmeri), waterhemp (common waterhemp, Amaranthus rudis), surinam grass (Brachiaria decumbens), large (Lg) crabgrass (Digitaria sanguinalis), Brazilian crabgrass (Digitaria horizontalis), fall panicum (Panicum dichotomiflorum), giant foxtail (Setaria faberii), green foxtail (Setaria viridis), goosegrass (Eleusine indica), johnsongrass (Sorghum halepense), ragweed (common ragweed, Ambrosia elatior), barnyardgrass (Echinochloa crus-galli), sandbur (southern sandbur, Cenchrus echinatus), arrowleaf sida (Sida rhombifolia), Italian ryegrass (Lolium multiflorum), dayflower (Virginia (VA) dayflower, Commelina virginica), field bindweed (Convolvulus arvensis), morningglory (Ipomoea coccinea), nightshade (eastern black nightshade, Solanum ptycanthum), kochia (Kochia scoparia), yellow nutsedge (Cyperus esculentus), cocklebur (common cocklebur, Xanthium strumarium), smartweed (ladysthumb smartweed, and hairy beggarticks (Bidens pilosa), were planted into a silt loam soil and treated preemergence with test chemicals formulated in a non-phytotoxic solvent mixture which included a surfactant.
At the same time, plants from these crop and weed species and also horseweed (Canada horseweed, Conyza canadensis), waterhemp_RES1, (ALS & Triazine resistant common waterhemp, Amaranthus rudis), and waterhemp_RES2, (ALS & HPPD resistant common waterhemp, Amaranthus rudis) were planted in pots containing Redi-Earth® planting medium (Scotts Company, 14111 Scottslawn Road, Marysville, Ohio 43041) comprising spaghnum peat moss, vermiculite, wetting agent and starter nutrients were treated with postemergence applications of test chemicals formulated in the same manner. Plants ranged in height from 2 to 18 cm for postemergence treatments (1- to 4-leaf stage). Treated plants and controls were maintained in a greenhouse for 14 to 21 days, after which time all species were compared to controls and visually evaluated. Plant response ratings, summarized in Table E, are based on a scale of 0 to 100 where 0 is no effect and 100 is complete control. A dash (-) response means no test result.

The source of these data is patent publication US9695155B2, “Herbicidal substituted pyrimidinyloxy benzene compounds” (E. I. DU PONT DE NEMOURS AND COMPANY, priority 2013, dated 2017).

Consider `N#Cc1cccc(Oc2ncc(Cl)cn2)c1-n1cc(Br)cn1` [Compound 52, 2-(4-bromo-1H-pyrazol-1-yl)-3-[(5-chloro-2-pyrimidinyl)oxy]benzonitrile], for which the pest or weed control at 31 g/ha in test [1] (31 g ai/ha) turned out to be 20%. The pest or weed control at 62 g/ha in test [1] (62 g ai/ha) was found to be 60%. The pest or weed control at 125 g/ha in test [1] (125 g ai/ha) came to 100%. In test [1] (250 g ai/ha), the pest or weed control at 250 g/ha came out at 100%. The results for the plant injury at 31 g/ha in test [2] (31 g ai/ha) and in test [3] (31 g ai/ha) were 5% and 0%, respectively. Moreover, the plant injury at 62 g/ha in test [2] (62 g ai/ha) was 10%; in test [3] (62 g ai/ha), 0%. The plant injury at 125 g/ha in test [2] (125 g ai/ha) came to 10%; in test [3] (125 g ai/ha), 5%. Besides, the figures for the plant injury at 250 g/ha in test [2] (250 g ai/ha) and in test [3] (250 g ai/ha) were 50% and 35%, respectively. Moreover, the “Cocklebur plant response rating” value in test [4] (16 g ai/ha), in test [4] (31 g ai/ha) and in test [4] (62 g ai/ha) was 0 throughout. Also, the “Plant response rating, Cocklebur” value in test [4] (250 g ai/ha) is 25.

Turning to `N#Cc1cnn(-c2c(C#N)cccc2Oc2ncc(Cl)cn2)c1` [Compound 200], the “Cocklebur plant response rating” value in test [4] (16 g ai/ha) and in test [4] (31 g ai/ha) was 0 in each case. For the same molecule, the “Plant response rating, Cocklebur” value in test [4] (125 g ai/ha) stood at 75; in test [4] (250 g ai/ha) it was 95.

For `N#Cc1cccc(Oc2ncc(Cl)cn2)c1-n1cc(Cl)cn1` [Compound 72], the “Cocklebur plant response rating” value in test [4] (16 g ai/ha) is on record as 0. Besides, the “Plant response rating, Cocklebur” value in test [4] (125 g ai/ha) amounted to 0; in test [4] (250 g ai/ha), 15.
